Results reported in patent US20230058189A1, “QUINOLIN-4-ONE AND 4(1H)-CINNOLINONE COMPOUNDS AND METHODS OF USING SAME” (Frequency Therapeutics, Inc., priority 2019, published 2023).

Columns and labels:
Assay type in all cases: biochemical
GSK3β = GSK3β (Homo sapiens, UniProt P49841); test: GSK3β in vitro enzymatic assay (Kinase-Glo Max luminescence); details: recombinant human GSK3, 10 μM ATP; approximate values; read-out: Potency GSK3beta
Procedure: (§1) Enzymatic activities of compounds of the present disclosure can be tested using recombinant human GSK3 in an in vitro enzymatic assay to determine the ability of the compounds of the present disclosure to inhibit GSK3α and GSK3β.
(§2) The assay was performed using Kinase-Glo® Max luminescence kinase assay kit (Promega). The assay measures kinase activity by quantitating the amount of ATP remaining in solution following a kinase reaction. The luminescent signal from the assay is correlated with the amount of ATP present and is inversely correlated with the amount of kinase activity.
(§3) To perform the assay, compounds were diluted in 10% DMSO and 5 μl of the dilution was added to a 50 μl reaction so that the final concentration of DMSO was 1% in all of reactions. The enzymatic reactions were conducted at 30° C. for 40 minutes. The 50 μl reaction mixture contained 40 mM Tris, pH 7.4, 10 mM MgCl2, 0.1 mg/ml BSA, 2 mM DTT, 0.1 mg/ml GSK tide substrate, 10 uM ATP and GSK3. After the enzymatic reaction, 50 μl of Kinase-Glo Max Luminescence kinase assay solution (Promega) was added to each reaction and plates were incubated for 15 minutes at room temperature. Luminescence signal was measured using a BioTek Synergy 2 microplate reader.
(§4) Kinase activity assays were performed in duplicate at each concentration. The luminescence data were analyzed using the computer software, GraphPad Prism. The difference between luminescence intensities in the absence of Kinase (Lut) and in the presence of Kinase (Luc) was defined as 100% activity (Lut-Luc). Using luminescence signal (Lu) in the presence of the compound, percent activity was calculated as: % activity={(Lut-Lu)/(Lut-Luc)}×100%, where Lu=the luminescence intensity in the presence of the compound (all percent activities below zero were shown zero in the table).
(§5) The values of percent activity versus a series of compound concentrations were then plotted using non-linear regression analysis of Sigmoidal dose-response curve generated with the equation Y=B+(T−B)/1+10((LogEC50−X)×Hill Slope), where Y=percent activity, B=minimum percent activity, T=maximum percent activity, X=logarithm of compound and Hill Slope=slope factor or Hill coefficient. The ICs, value was determined by the concentration causing a half-maximal percent activity.

LSD2 = biological target: T1, LSD2 (Homo sapiens, UniProt Q8NB78); test: LSD2 A-screen (AlphaScreen) demethylase enzymatic assay; details: approximate values; for inhibition at 50 µM: 50 μM compound, read-out: Potency LSD-2 % Inhibition at 50 μM; for IC50: read-out: Potency LSD-2 IC50
T1 sequence (Q8NB78 1-822): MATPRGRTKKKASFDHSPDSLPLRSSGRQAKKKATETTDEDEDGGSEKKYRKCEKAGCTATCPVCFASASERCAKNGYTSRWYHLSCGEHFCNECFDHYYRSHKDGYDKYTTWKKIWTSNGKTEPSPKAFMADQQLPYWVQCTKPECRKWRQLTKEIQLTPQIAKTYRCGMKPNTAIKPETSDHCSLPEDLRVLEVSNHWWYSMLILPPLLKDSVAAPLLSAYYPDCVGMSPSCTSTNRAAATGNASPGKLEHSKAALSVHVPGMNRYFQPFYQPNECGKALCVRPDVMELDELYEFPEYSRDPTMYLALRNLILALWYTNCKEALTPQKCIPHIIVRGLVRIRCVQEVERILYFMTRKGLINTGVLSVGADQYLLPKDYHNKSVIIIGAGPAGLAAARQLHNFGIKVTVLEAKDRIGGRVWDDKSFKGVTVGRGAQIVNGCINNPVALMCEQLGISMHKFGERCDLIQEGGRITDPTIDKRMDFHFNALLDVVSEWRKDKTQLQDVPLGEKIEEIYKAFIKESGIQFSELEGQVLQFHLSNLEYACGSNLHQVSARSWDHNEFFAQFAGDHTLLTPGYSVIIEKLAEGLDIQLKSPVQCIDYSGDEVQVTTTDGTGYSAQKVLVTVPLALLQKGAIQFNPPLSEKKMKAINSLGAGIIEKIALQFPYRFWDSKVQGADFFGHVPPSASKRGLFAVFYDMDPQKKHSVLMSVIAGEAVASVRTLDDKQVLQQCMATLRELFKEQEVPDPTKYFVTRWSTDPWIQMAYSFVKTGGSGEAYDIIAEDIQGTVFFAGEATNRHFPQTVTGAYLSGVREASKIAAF
Procedure: (§6) Enzymatic activities of compounds of the present disclosure can be tested with recombinant human LSD using an in vitro enzymatic assay to determine the ability of the compounds of the present disclosure to inhibit LSD-1 and LSD2. Examples of the assay are provided below.
(§7) All of the enzymatic reactions were conducted in duplicate at room temperature for 60 minutes in a 10 μL mixture containing assay buffer, histone H3 peptide substrate, demthylase enzyme, and the test compound. These 10 μL reactions were carried out in wells of a 384-well Optiplate (PerkinElmer). The dilution of the compounds was first performed in 100% DMSO with the highest concentration at 5 mM Each intermediate compound dilution (in 100% DMSO) was then directly diluted 30× fold into assay buffer for 3.3× concentration (DMSO). […] From this intermediate step, 3 μL of compound was added to 4 μL of demethylase enzyme dilution was incubated for 30 minutes at room temperature. After this incubation, 3 μL of peptide substrate was added. The final DMSO concentration was 1%. After enzymatic reactions, 5 μL of anti-Mouse or anti-Rabbit Acceptor beads (PerkinElmer, diluted 1:500 with 1× detection buffer) and […] (BPS, diluted 1:800 with 1× detection buffer) were added to the reaction mix. After brief shaking, the plate was incubated for 30 minutes. Finally, 10 μL of AlphaScreen™ Streptavidin-conjugated donor beads (Perkin, diluted 1:125 with 1× detection buffer) were added. After 30 minutes, the samples were measured in an AlphaScreen microplate reader (EnSpire Alpha 2390 Multilabel Reader, Perkin Elmer).
(§8) Enzyme activity assays were performed in duplicates at each concentration. The A-screen intensity data were analyzed and compared. In the absence of the compound, the intensity in each data set was defined as 100% (Ce) activity. In the absence of enzyme, the intensity in each data set was defined as 0% (C0) activity. The percent activity in the presence of each compound was calculated according to the following equation: % activity=(C−C0)/(Ce−C0), where C=the intensity in the presence of the compound.
as §5, with “value” for “values”, “was” for “were”, “IC50” for “ICs,”

LSD-1 = LSD-1 (Homo sapiens, UniProt O60341); test: LSD-1 A-screen (AlphaScreen) demethylase enzymatic assay; details: approximate values; for inhibition at 50 µM: read-out: Potency LSD-1 % Inhibition at 50 μM; for IC50: read-out: Potency LSD-1 IC50
Procedure: as §6, §7, §8
as §5, with “value” for “values”, “was” for “were”, “IC50” for “ICs,”

GSK3α = GSK3α (Homo sapiens, UniProt P49840); test: GSK3α in vitro enzymatic assay (Kinase-Glo Max luminescence); details: recombinant human GSK3, 10 μM ATP; approximate values; read-out: Potency GSK3alpha
Procedure: as §1, §2, §3, §4, §5

Sequence of GSK3α (P49840 whole entry): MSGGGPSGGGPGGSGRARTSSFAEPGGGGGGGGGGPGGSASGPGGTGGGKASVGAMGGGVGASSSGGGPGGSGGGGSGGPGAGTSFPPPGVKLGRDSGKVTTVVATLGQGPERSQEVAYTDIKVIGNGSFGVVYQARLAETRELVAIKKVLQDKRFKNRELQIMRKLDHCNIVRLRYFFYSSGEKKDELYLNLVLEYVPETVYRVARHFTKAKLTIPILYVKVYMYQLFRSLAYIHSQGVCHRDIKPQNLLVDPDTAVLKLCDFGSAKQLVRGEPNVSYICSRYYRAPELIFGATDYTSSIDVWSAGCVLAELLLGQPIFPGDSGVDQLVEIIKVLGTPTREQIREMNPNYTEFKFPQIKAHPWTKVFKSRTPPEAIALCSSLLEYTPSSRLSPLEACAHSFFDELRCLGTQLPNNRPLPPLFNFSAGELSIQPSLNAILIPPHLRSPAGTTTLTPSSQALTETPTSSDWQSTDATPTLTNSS
Sequence of GSK3β (P49841 whole entry): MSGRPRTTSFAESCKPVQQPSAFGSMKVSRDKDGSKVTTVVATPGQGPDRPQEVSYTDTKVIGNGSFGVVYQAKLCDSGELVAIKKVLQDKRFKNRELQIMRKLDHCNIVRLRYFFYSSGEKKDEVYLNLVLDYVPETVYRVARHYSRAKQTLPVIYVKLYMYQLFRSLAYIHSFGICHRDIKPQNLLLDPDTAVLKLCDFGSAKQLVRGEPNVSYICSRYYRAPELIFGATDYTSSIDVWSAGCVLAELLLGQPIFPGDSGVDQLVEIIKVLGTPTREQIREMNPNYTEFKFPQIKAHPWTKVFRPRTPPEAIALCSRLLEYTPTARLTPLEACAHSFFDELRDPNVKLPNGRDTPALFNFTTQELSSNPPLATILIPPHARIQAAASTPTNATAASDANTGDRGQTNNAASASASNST

| Compound | IC50 (GSK3β) [nM] | inhibition at 50 µM (LSD2) [%] | inhibition at 50 µM (LSD-1; 50 μM compound) [%] | IC50 (GSK3α) [nM] | IC50 (LSD-1) [nM] | IC50 (LSD2) [µM] | Potency LSD-1 % Inhibition at 50 μM (LSD-1; 50 μM compound, 50 µM) [% @ 50 μM] |
| --- | --- | --- | --- | --- | --- | --- | --- |
| CCn1cc(C(=O)O)c(=O)c2cc(F)c(NC3CCCCC3)cc21 [Compound I-1] | 6700 | 6 | 10 | 3600 | – | – | – |
| CCn1cc(C(=O)O)c(=O)c2c(N)c(F)c(NC3Cc4ccccc4C3)cc21 [Compound I-11] | 990 | 13 | 27 | 846 | – | – | – |
| CC(C)n1cc(C(=O)O)c(=O)c2c(N)c(F)c(N[C@]3(C)C[C@@H](N[C@@H]4C[C@H]4c4ccccc4)C3)cc21 (relative stereo) [Compound I-93] | 6540 | 2 | 3 | 3950 | – | – | – |
| CCn1cc(C(=O)O)c(=O)c2c(N)c(F)c(N[C@@H]3CC[C@@H]3c3ccccc3)cc21 (relative stereo) [Compound I-14] | > 10000 | 3 | 5 | > 10000 | – | – | – |
| CCn1cc(-c2nnn[nH]2)c(=O)c2c(N)c(F)c(NCCc3ccccc3)cc21 [Compound I-68] | 711 | 96 | 0 | 581 | – | – | – |
| CCn1cc(C(=O)O)c(=O)c2c(N)c(F)c(N[C@@H]3CC[C@H]3c3ccccc3)cc21 (relative stereo) [Compound I-13] | 555 | 18 | 26 | 628 | – | – | – |
| CCn1cc(C(=O)O)c(=O)c2c(N)cc(NCCc3ccccc3)c(F)c21 [Compound I-65] | > 10000 | 38 | 88 | > 10000 | – | – | – |
| CCn1cc(C(=O)O)c(=O)c2c(N)c(F)c(N3CCC(N[C@@H]4C[C@H]4c4ccccc4)CC3)cc21 (relative stereo) [Compound I-26] | > 10000 | 53 | – | > 10000 | 1500 | – | – |
| Cn1cc(C(=O)O)c(=O)c2c(N)c(F)c(NCCN[C@@H]3C[C@H]3c3ccccc3)cc21 (relative stereo) [Compound I-86] | 2170 | 6 | – | 919 | 1900 | – | – |
| CCn1cc(C(=O)O)c(=O)c2c(N)c(F)c(NCCN[C@@H]3C[C@]34CCc3ccccc34)cc21 (relative stereo) [Compound I-81] | 546 | – | – | 457 | 58 | 43 | – |

Compounds with a lower IC50 (GSK3β), results first:

| IC50 (GSK3β) [nM] | inhibition at 50 µM (LSD2) [%] | inhibition at 50 µM (LSD-1; 50 μM compound) [%] | IC50 (GSK3α) [nM] | IC50 (LSD-1) [nM] | IC50 (LSD2) [µM] | Potency LSD-1 % Inhibition at 50 μM (LSD-1; 50 μM compound, 50 µM) [% @ 50 μM] | Compound |
| --- | --- | --- | --- | --- | --- | --- | --- |
| 504 | – | – | 449 | > 100000 | 49 | – | CCn1cc(C(=O)O)c(=O)c2c(N)c(F)c(Nc3ccc([C@@H]4C[C@H]4N)cc3)cc21 (relative stereo) [Compound I-62] |
| 452 | 1 | 10 | 713 | – | – | – | CCn1cc(C(=O)O)c(=O)c2c(N)c(F)c(NC3CCOCC3)cc21 [Compound I-8] |
| 366 | 0 | 13 | 250 | – | – | – | CCC(CC)n1cc(C(=O)O)c(=O)c2c(C)c(F)c(NC3CCCCC3)cc21 [Compound I-3] |
| 338 | 10 | – | 102 | – | – | <10 | CCn1cc(C(=O)O)c(=O)c2c(N)c(F)c(N[C@@H]3C[C@H]3c3ccccc3)cc21 (single isomer, unassigned) [Compound I-20] |
| 115 | 2 | 11 | 137 | – | – | – | CCn1cc(C(=O)O)c(=O)c2c(N)c(F)c(N[C@H]3C[C@@H]3c3ccccc3)cc21 [Compound I-22] |
| 83 | 14 | – | 19.5 | 2600 | – | – | CC(C)n1cc(C(=O)O)c(=O)c2c(N)c(F)c(NCCN[C@@H]3C[C@H]3c3ccccc3)cc21 (relative stereo) [Compound I-88] |
| 53 | 3 | 6 | 69 | – | – | – | CCn1cc(C(=O)O)c(=O)c2c(N)c(F)c(NC3CCCC3)cc21 [Compound I-9] |
| 52 | 3 | 17 | 61 | – | – | – | CCn1cc(C(=O)O)c(=O)c2c(N)c(F)c(NC3CN(c4ccccc4)C3)cc21 [Compound I-69] |
| 29 | 17 | 27 | 19 | – | – | – | CCn1cc(C(=O)O)c(=O)c2c(N)c(F)c(NCCCc3ccccc3)cc21 [Compound I-19] |
| 18 | 5 | 10 | 38 | – | – | – | CCn1cc(C(=O)O)c(=O)c2c(N)c(F)c(NC3CCCCC3)cc21 [Compound I-7] |
| 2.5 | 4 | 6 | 2.6 | – | – | – | CCn1cc(C(N)=O)c(=O)c2c(N)c(F)c(NCCc3ccccc3)cc21 [Compound I-66] |
| 2.2 | – | – | 2.7 | 1400 | 41 | – | CCn1cc(C#N)c(=O)c2c(N)c(F)c(NCCN[C@@H]3C[C@H]3c3ccccc3)cc21 (relative stereo) [Compound I-84] |
| 1.9 | 4 | 8 | 2 | – | – | – | CCn1cc(C#N)c(=O)c2c(N)c(F)c(NCCc3ccccc3)cc21 [Compound I-67] |
